In patent publication US12558317B2, “Compositions and methods for treating disorders ameliorated by muscarinic receptor activation” (Karuna Therapeutics, Inc., priority 2018, dated 2026):
Blank lines part the entries; values can stand above or below the molecule they belong to.

Tests used:
[1] = Mutagenic potential
[2] = test system: normal healthy volunteers; experiment: KAR-001 Phase I study: safety and tolerability, cholinergic adverse events; type: in vivo, human
[3] = KAR-001 Phase I study: xanomeline pharmacokinetics; details: human, in vivo, 225 mg daily; for AUC / Cmax: oral, geometric mean; for AUC: Xanomeline AUC0-tau; for Cmax: Xanomeline Cmax
Description: A Phase I, double-blind, randomized multiple-dose pilot study was conducted with xanomeline administered alone compared to xanomeline administered with trospium chloride in normal healthy volunteers. […]

[4] = 26-week study of Alzheimer's disease; cited from earlier work
[5] = KAR-001 Safety Population, cholinergic TEAE, number of individual occurrences
[6] = KAR-001 Safety Population, cholinergic TEAE, number of subjects
[7] = KAR-001 Safety Population, cholinergic TEAE, percentage of subjects in arm

Compound: CCCCCCOc1nsnc1-c1ccc[n+](C)c1 [Compound V]
mutagenic potential [1]: negative

Tmax ([3]; KAR-001 Day 3, median): 2 h | AUC ([3]; KAR-001 Day 3): 12.6 ng·h/mL | AUC ([3]; KAR-001 Day 9): 24.8 ng·h/mL | Cmax ([3]; KAR-001 Day 3): 2.95 ng/mL | Cmax ([3]; KAR-001 Day 9): 4.57 ng/mL
Compound: CCCCCCOc1nsnc1C1=CCCN(C)C1 [xanomeline]
AE leading to discontinuation (D/C), # events ([2]; KAR-001): 2 | AE leading to discontinuation (D/C), % ([2]; KAR-001): 6.1% | Any SAE, % ([2]; KAR-001): (0.0) % | Any clinically significant TEAE, # events ([2]; KAR-001): 5 | Any clinically significant TEAE, % ([2]; KAR-001): 15.2% | Any study drug-related TEAE, # events ([2]; KAR-001): 92 | Any study drug-related TEAE, % ([2]; KAR-001): 69.7% | Diarrhea, # of events ([2]; KAR-001): 8 | Diarrhea, % of subjects ([2]; KAR-001): 21.2% | Diarrhea, n subjects ([2]; KAR-001): 7 | Max Severity of TEAE: Mild, % ([2]; KAR-001): (66.7) N/A % | Max Severity of TEAE: Moderate, % ([2]; KAR-001): (15.2) N/A % | Max Severity of TEAE: Severe, % ([2]; KAR-001): (0.0) % | Max severity of study drug-related TEAE: Mild, % ([2]; KAR-001): (57/6) N/A | Max severity of study drug-related TEAE: Moderate, % ([2]; KAR-001): (12.1) N/A % | Max severity of study drug-related TEAE: Severe, % ([2]; KAR-001): (0.0) N/A % | Nausea, # of events ([2]; KAR-001): 11 | Nausea, % of subjects ([2]; KAR-001): 24.2% | Nausea, n subjects ([2]; KAR-001): 8 | Salivation (salivary hypersecretion), % of subjects ([2]; KAR-001): 36.4% | Salivation, # of events ([2]; KAR-001): 16 | Salivation, n subjects ([2]; KAR-001): 12 | Study drug related AE leading to D/C, # events ([2]; KAR-001): 1 | Study drug related AE leading to D/C, % ([2]; KAR-001): 3.0% | Subjects with any TEAE, # events ([2]; KAR-001): 108 | Subjects with any TEAE, % ([2]; KAR-001): 81.8% | Sweating (hyperhidrosis), % of subjects ([2]; KAR-001): 48.5% | Sweating, # of events ([2]; KAR-001): 24 | Sweating, n subjects ([2]; KAR-001): 16 | Vomiting, # of events ([2]; KAR-001): 5 | Vomiting, % of subjects ([2]; KAR-001): 15.2% | Vomiting, n subjects ([2]; KAR-001): 5 | Cholinergic adverse events: Any TEAEs, # of events ([2]; KAR-001, healthy volunteers): 64 | Cholinergic adverse events: Any TEAEs, n subjects ([2]; KAR-001, healthy volunteers): 21 | Cholinergic adverse events: Any TEAEs, % of subjects ([2]; KAR-001, healthy volunteers, listed as Xanomeline + placebo): 63.6% | Cholinergic adverse events: Any TEAEs, % of subjects ([2]; KAR-001, healthy volunteers, listed as xanomeline+placebo): 63% | Diarrhea, # occurrences [2, 5]: 8 | Gastrointestinal disorders, # occurrences [2, 5]: 40 | Hyperhidrosis, # occurrences [2, 5]: 24 | Nausea, # occurrences [2, 5]: 11 | Salivary hypersecretion, # occurrences [2, 5]: 16 | Skin and subcutaneous tissue disorders, # occurrences [2, 5]: 24 | Vomiting, # occurrences [2, 5]: 5 | Diarrhea, n subjects [2, 6]: 7 | Gastrointestinal disorders, n subjects [2, 6]: 18 | Hyperhidrosis, n subjects [2, 6]: 16 | Nausea, n subjects [2, 6]: 8 | Salivary hypersecretion, n subjects [2, 6]: 12 | Skin and subcutaneous tissue disorders, n subjects [2, 6]: 16 | Vomiting, n subjects [2, 6]: 5 | Diarrhea, % of subjects [2, 7]: 20.6% | Gastrointestinal disorders, % of subjects [2, 7]: 52.9% | Hyperhidrosis, % of subjects [2, 7]: 47.1% | Nausea, % of subjects [2, 7]: 23.5% | Salivary hypersecretion, % of subjects [2, 7]: 35.3% | Skin and subcutaneous tissue disorders, % of subjects [2, 7]: 47.1% | Vomiting, % of subjects [2, 7]: 14.7% | Subjects with any TEAEs (cholinergic), # occurrences ([2]; KAR-001 Safety Population, number of individual occurrences): 64 | Subjects with any TEAEs (cholinergic), n subjects ([2]; KAR-001 Safety Population, number of subjects): 21 | Subjects with any TEAEs (cholinergic), % of subjects ([2]; KAR-001 Safety Population, percentage of subjects in arm): 61.8% | dropout rate [4]: 56%
